Laboratory results published in patent publication US20210275624A1, “TREATMENTS FOR IMPROVING OR LESSENING IMPAIRMENT OF MITOCHONDRIAL FUNCTION” (priority 2020, published 2021).
Square brackets hold non-standard residues; d marks the D form. Peptide text beside a SMILES is read from it. Cya = N[C@@H](CS(=O)(=O)O)C(=O)O

Test system: dog heart failure model
Assay: Dog heart failure model (coronary microembolization), ventriculographic and hemodynamic measurements
Type: in vivo
Settings: for Left Ventricle Ejection Fraction: n = 3, pretreatment 32; for Cardiac Output, Δ vs pretreatment / Left Ventricle Ejection Fraction, Δ vs pretreatment / Stroke Volume, Δ vs pretreatment / Cardiac Output / Mean Pulmonary Artery Wedge Pressure / L V End Diastolic Pressure / Mean Pulmonary Artery Pressure / Stroke Volume / L V End Systolic Volume / L V End Diastolic Volume / Mean Aortic Pressure / Heart Rate / Systemic Vascular Resistance / L V Peak + dP/dt: post 3rd inj.; for Cardiac Output: pretreatment 1.81; for Mean Pulmonary Artery Wedge Pressure: pretreatment 9.3; for L V End Diastolic Pressure: pretreatment 13; for Mean Pulmonary Artery Pressure: pretreatment 17; for Stroke Volume: pretreatment 21; for L V End Systolic Volume: pretreatment 43; for L V End Diastolic Volume: pretreatment 64; for Mean Aortic Pressure: pretreatment 75; for Heart Rate: pretreatment 88; for Systemic Vascular Resistance: pretreatment 3391
Method: An initial study was conducted to assess the effects of Risuteganib administered intravenously at doses of 1.0 mg/kg and 5.0 mg/kg in a dog heart failure model. The subject animals underwent coronary microembolization to induce heart failure as described in Sabbah, H., et al.; Chronic Therapy with Elamipretide (MTP-131), a Novel Mitochondria-Targeting Peptide, Improves Left Ventricular and Mitochondrial Function in Dogs with Advanced Heart Failure; Circ Heart Fail. 2016 February; 9(2): e002206. doi:10.1161/CIRCHEARTFAILURE.115.002206.
Three (3) dogs were received 1.0 mg/kg Risuteganib every 2 weeks for 6 weeks. After an intervening period of approximately one week, the same three (3) dogs then received 5.0 mg/kg Risuteganib every 2 weeks for 6 additional weeks. Ventriculographic and hemodynamic measurements were made prior to the first intravenous dose of Risuteganib, after the third biweekly 1.0 mg/kg intravenous dose of Risuteganib and again after the third biweekly 5.0 mg/kg intravenous dose of Risuteganib.

[1] = 1.0 mg/kg IV q 2 weeks for 6 weeks
[2] = 5.0 mg/kg IV q 2 weeks for 6 weeks

## C[C@@H](O)[C@H](NC(=O)[C@H](CS(=O)(=O)O)NC(=O)CNC(=O)[C@H](CCCNC(=N)N)NC(=O)CN)C(=O)N1CCC[C@H]1C(=O)O [Risuteganib, Glycyl-L-arginylglycyl-3-sulfo-L-alanyl-L-threonyl-L-proline] (H-GRG[Cya]TP-OH)
1.0 mg/kg IV q 2 weeks for 6 weeks, post 3rd 1.0 mg/kg IV inj.
  Left Ventricle Ejection Fraction: 37%
[1]
  Cardiac Output, Δ vs pretreatment: Δ = +0.14 L/min
  Left Ventricle Ejection Fraction, Δ vs pretreatment: Δ = +5%
  Stroke Volume, Δ vs pretreatment: Δ = +2 mL
  Cardiac Output: 1.95 L/min
  Mean Pulmonary Artery Wedge Pressure: 9.0 mmHg
  L V End Diastolic Pressure: 13 mmHg
  Mean Pulmonary Artery Pressure: 16 mmHg
  Stroke Volume: 23 mL
  L V End Systolic Volume: 0.04 L
  L V End Diastolic Volume: 0.063 L
  Mean Aortic Pressure: 71 mmHg
  Heart Rate: 86 beats/min
  Systemic Vascular Resistance: 2954 dynes-sec-cm-5
5.0 mg/kg IV q 2 weeks for 6 weeks, post 3rd 5.0 mg/kg IV inj.
  Left Ventricle Ejection Fraction: 41%
[2]
  Cardiac Output, Δ vs pretreatment: Δ = +0.57 L/min
  Left Ventricle Ejection Fraction, Δ vs pretreatment: Δ = +9%
  Stroke Volume, Δ vs pretreatment: Δ = +5 mL
  Cardiac Output: 2.38 L/min
  Mean Pulmonary Artery Wedge Pressure: 9.0 mmHg
  L V End Diastolic Pressure: 13 mmHg
  Mean Pulmonary Artery Pressure: 16 mmHg
  Stroke Volume: 27 mL
  L V End Systolic Volume: 0.039 L
  L V End Diastolic Volume: 0.067 L
  Mean Aortic Pressure: 84 mmHg
  Heart Rate: 87 beats/min
  Systemic Vascular Resistance: 2924 dynes-sec-cm-5
First line so headed (r26), 1.0 mg/kg IV q 2 weeks for 6 weeks, pretreatment 1241
  L V Peak + dP/dt: 1267 mmHg/sec
First line so headed (r26), 5.0 mg/kg IV q 2 weeks for 6 weeks, pretreatment 1241
  L V Peak + dP/dt: 1288 mmHg/sec
Heart failure dogs, 1.0 mg/kg and 5.0 mg/kg intravenously
  cardiac function: improved
Second line so headed (r29), 1.0 mg/kg IV q 2 weeks for 6 weeks, pretreatment 1509
  L V Peak + dP/dt: 1325 mmHg/sec
Second line so headed (r29), 5.0 mg/kg IV q 2 weeks for 6 weeks, pretreatment 1509
  L V Peak + dP/dt: 1338 mmHg/sec
